Columns and labels:
BALB/C female mice = experiment: In vivo toxicity (serum biochemistry, liver and kidney histology); details: 6 mg/kg, H&E, day 30
Protocol: (§1) Ethics Committee of the Faculty of Medical Sciences of the University of Kragujevac, Serbia, approved all experiments (01-5301/11). ARRIVE guidelines and EU Directive 2010/63/EU for animal experiments were followed. Experimental animals, BALB/C female mice (8–10 weeks old), were housed under standard conditions (temperature-controlled environment, a 12 h light–dark cycle, fed ad libitum, and observed daily) throughout whole duration of experiment. Animals were inoculated with 4T1 cells (3 × 10^4) into the fourth mammary fat pad as previously described. Animals were randomly assigned to experimental or control groups, and after palpable tumors were detected, the pharmacological treatments were started. Female BALB/C mice intraperitoneally received either C3 (3 mg/kg), C3 (6 mg/kg), CDDP (6 mg/kg), or vehicle in distilled water with 0.05% DMSO (Sigma-Aldrich, St. Louis, MO, USA) (untreated group) in five single doses every third day (8 animals per group). Using electronic calipers (Moore and Wright, Sheffield, UK), the sizes of primary 4T1 mammary tumors were morphometrically evaluated. On the 30th day of experiment, animals were sacrificed, blood was collected (for determination of serum levels of ALT, AST, urea, and creatinine), and tissue sections (liver and kidney) were stained with H&E for further analysis. Liver or kidney sections were analyzed by two observers, and the injury levels were determined as previously reported.

human lung cancer (A549) = experiment: MTT assay A549; type: cell-based
Protocol: (§2) Mouse breast cancer (4T1), human breast cancer (MDA-MB-468), mouse colon cancer (CT26), human colon cancer (HCT-116), mouse lung cancer (LLC1), human lung cancer (A549), mouse mesenchymal stem cells (mMSC), and human fibroblast cell lines (MRC-5) were used in this study and were consistently cultured in complete Dulbecco’s Modified Eagle Medium (DMEM) (Sigma-Aldrich, St. Louis, MO, USA) in incubator (5% CO2) under standard conditions. Complete DMEM was Dulbecco’s Modified Eagle Medium supplemented with 10% fetal bovine serum (FBS), 1 mmol/L penicillin–streptomycin, 1 mmol/L mixed nonessential amino acids, and 2 mmol/L L-glutamine (Sigma-Aldrich, St. Louis, MO, USA). All cancer cell lines and MRC-5 cell line were obtained from American Type Culture Collection (ATCC, Manassas, VA, USA), but mMSC was manufactured by Gibco (Middlesex County, MA, USA).
(§3) In 96-well microplates, we seeded cancer and non-cancer cells, more exactly 5 × 10^3 cells per well in 100 μL of complete DMEM (Sigma-Aldrich, St. Louis, MO, USA). […] Tested concentration range for all metal-based substances was 3.9–500 μM. After incubation with MTT solution (5 mg/mL; pH 7.2) for 4 h, optical density was determined using Zenyth 3100 microplate multimode detector (Salzburg, Austria). All experiments were performed three times, each in triplicate, and the IC50 values as well as selectivity indexes (IC50 for mMSC or MRC-5/IC50 for mouse or human cancer cells) were calculated.

[1] = test system: human colon cancer (HCT-116); experiment: MTT assay HCT116; type: cell-based
Protocol: as §2, §3

4T1 mammary tumors = experiment: Breast cancer development in vivo (orthotopic 4T1); set-up: species or system BALB/C female mice; details: 6 mg/kg i.p., five single doses every third day, after day 18
Protocol: as §1

[2] = test system: mouse colon cancer (CT26); experiment: MTT assay CT26; type: cell-based
Protocol: as §2, §3

[3] = test system: mouse mesenchymal stem cells (mMSC); experiment: MTT assay mMSC; type: cell-based; details: 24 h
Protocol: as §2, §3

mouse lung cancer (LLC1) = experiment: MTT assay LLC1; type: cell-based
Protocol: as §2, §3

[4] = test system: human breast cancer (MDA-MB-468); experiment: MTT assay MDA-MB-468; type: cell-based
Protocol: as §2, §3

[5] = test system: Mouse breast cancer (4T1); experiment: MTT assay 4T1; type: cell-based
Protocol: as §2, §3

[6] = test system: human fibroblast cell lines (MRC-5); experiment: MTT assay MRC-5; type: cell-based
Protocol: as §2, §3

CT-DNA [7] = test system: CT-DNA; set-up: method as in PMID 25350363; details: cited from earlier work
BSA = target: T1, BSA (Bos taurus, UniProt P02769); experiment: BSA tryptophan fluorescence quenching; type: binding, bovine
T1 construct: purchased Sigma-Aldrich
T1 sequence (P02769 25-607): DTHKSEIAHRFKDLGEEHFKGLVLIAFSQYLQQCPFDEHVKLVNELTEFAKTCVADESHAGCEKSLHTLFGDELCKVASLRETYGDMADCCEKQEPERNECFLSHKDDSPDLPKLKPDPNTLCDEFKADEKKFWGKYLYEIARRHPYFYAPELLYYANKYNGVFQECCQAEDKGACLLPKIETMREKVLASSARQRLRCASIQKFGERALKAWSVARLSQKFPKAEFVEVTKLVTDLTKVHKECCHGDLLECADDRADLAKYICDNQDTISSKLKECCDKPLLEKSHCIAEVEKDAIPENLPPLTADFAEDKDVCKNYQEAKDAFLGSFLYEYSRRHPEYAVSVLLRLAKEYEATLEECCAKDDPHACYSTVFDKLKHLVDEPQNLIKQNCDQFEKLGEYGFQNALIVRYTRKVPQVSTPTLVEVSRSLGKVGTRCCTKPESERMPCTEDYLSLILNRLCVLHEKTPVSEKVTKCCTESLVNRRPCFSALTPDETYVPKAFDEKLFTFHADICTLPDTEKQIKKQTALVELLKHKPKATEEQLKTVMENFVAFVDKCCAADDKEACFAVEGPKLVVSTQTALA
Protocol: The protein binding study was carried out using tryptophan fluorescence quenching experiments with BSA. […] Fluorescence emission spectra were recorded between 300 and 500 nm, with excitation at 295 nm.
The quenching constant Ksv was determined based on the Stern–Volmer relationship, as described by Equation (3):I0/I = 1 + kqτ0[Q] = 1 + Ksv[Q](3)
In this equation, I0 and I refer to the fluorescence intensities of BSA measured without and with the quencher (complex), τ0 represents the average fluorescence lifetime of free BSA (∼10^−8 s), and [Q] indicates the quencher concentration.
Parameters such as association binding constant (K) and the number of binding sites per albumin (n) were obtained from Scatchard Equation (4):(ΔI/I0)/[Q] = nK − KΔI/I0(4)
To minimize inner filter, both intensities of fluorescence originating from excitation and emission light absorption and re-absorption were corrected by employing Equation (5); Icor and Iobs are the corrected and observed fluorescence intensities, respectively, and Aex and Aem represent the absorbance of the metal complex at the excitation and emission wavelengths, respectively.Icor = Iobs · […]^(Aex + Aem)/2(5)

CT-DNA [8] = experiment: UV-Vis absorption titration with CT-DNA; type: binding, calf; details: ΔG = −RT lnKb
Protocol: All DNA-binding studies were conducted in 0.01 M phosphate-buffered saline (PBS, pH 7.40) at 25 °C. […] To eliminate absorbance from CT-DNA, identical amounts of DNA were added to both the test and reference solutions prior to spectral recording.
Intrinsic binding constants (Kb) were calculated using the equation to determine the DNA-binding affinities of the complexes (1):[DNA]/(εa − εf) = [DNA]/(εb − εf) + 1 [Kb(εb − εf)](1)
[DNA] represents the concentration of DNA; apparent extinction coefficient, εa, was calculated as the ratio of the observed absorbance to the concentration of the complex (Aobs/[complex]); and εb and εf correspond to the extinction coefficients of the complex in the fully bound and free forms, respectively. Kb was determined from the ratio of the slope to the intercept obtained from the corresponding linear plots.

CT-DNA [9] = experiment: EB–CT-DNA fluorescence quenching; type: binding, calf; details: EB–CT-DNA 8.52 × 10^−5 M, PBS pH 7.4
Protocol: All samples were prepared in phosphate-buffered saline (PBS, pH 7.4). Stern–Volmer Equation (2) was used to interpret the fluorescence quenching data.

[NH2][Pt]([NH2])([Cl])[Cl] [CDDP, cisplatin, reference compound]
liver changes (histopathology) (BALB/C female mice): piecemeal necrosis, focal lytic necrosis, and portal inflammation | IC50 (human lung cancer (A549); A549, 24 h): 23.2 ± 1.77 µM | Selectivity Index (IC50 mMSC or MRC-5/ IC50 Cancer Cell) (human lung cancer (A549); A549, 24 h): 1.74 | IC50 (human lung cancer (A549); A549, 48 h): 14 ± 1.44 µM | Selectivity Index (IC50 mMSC or MRC-5/ IC50 Cancer Cell) (human lung cancer (A549); A549, 48 h): 1.95 | IC50 ([1]; HCT 116, 24 h): 63.3 ± 3.21 µM | IC50 ([1]; HCT 116, 48 h): 15.8 ± 1.28 µM | Selectivity Index (IC50 mMSC or MRC-5/ IC50 Cancer Cell) ([1]; HCT-116, 24 h): 0.64 | Selectivity Index (IC50 mMSC or MRC-5/ IC50 Cancer Cell) ([1]; HCT-116, 48 h): 1.73 | tumor growth compared to the untreated group (4T1 mammary tumors): significantly slower | IC50 ([2]; CT26, 24 h): 16.9 ± 1.42 µM | Selectivity Index (IC50 mMSC or MRC-5/ IC50 Cancer Cell) ([2]; CT26, 24 h): 1.01 | IC50 [3]: 17.1 ± 1.15 µM | IC50 (mouse lung cancer (LLC1); LLC1, 24 h): 21.8 ± 1.11 µM | Selectivity Index (IC50 mMSC or MRC-5/ IC50 Cancer Cell) (mouse lung cancer (LLC1); LLC1, 24 h): 0.79 | IC50 ([4]; MDA-MB-468, 24 h): 4.06 ± 0.97 µM | Selectivity Index (IC50 mMSC or MRC-5/ IC50 Cancer Cell) ([4]; MDA-MB-468, 24 h): 9.98 | IC50 ([5]; 4T1, 24 h): 12 ± 1.98 µM | Selectivity Index (IC50 mMSC or MRC-5/ IC50 Cancer Cell) ([5]; 4T1, 24 h): 1.43 | IC50 ([5]; 4T1, 48 h): 5.17 ± 0.98 µM | IC50 ([6]; MRC-5, 24 h): 40.5 ± 0.57 µM | IC50 ([6]; MRC-5, 48 h): 27.4 ± 0.72 µM

CSc1ccccc1C(=O)O [L1, S-methyl derivative of thiosalicylic acid]
IC50 ([5]; 4T1, 48 h): 443 ± 30.5 µM | IC50 ([6]; MRC-5, 48 h): 488 ± 41.6 µM

CCSc1ccccc1C(=O)O [L2, S-ethyl derivative of thiosalicylic]
IC50 ([2]; CT26, 48 h): 465 ± 39.5 µM | IC50 ([5]; 4T1, 48 h): 500 ± 7.6 µM | IC50 ([6]; MRC-5, 48 h): 384 ± 20.5 µM

CCCSc1ccccc1C(=O)O [L3, S-propyl derivative of thiosalicylic acid]
IC50 (human lung cancer (A549); A549, 48 h): 500 ± 47.3 µM | IC50 ([5]; 4T1, 48 h): 500 ± 30.5 µM

CCCCSc1ccccc1C(=O)O [L4, S-butyl derivative of thiosalicylic]
IC50 (human lung cancer (A549); A549, 24 h): 494.9 ± 3.58 µM | IC50 (human lung cancer (A549); A549, 48 h): 490 ± 22 µM | IC50 ([2]; CT26, 48 h): 368 ± 58.3 µM | IC50 ([4]; MDA-MB-468, 48 h): 408 ± 12.7 µM | IC50 ([5]; 4T1, 24 h): 407 ± 35.1 µM | IC50 ([5]; 4T1, 48 h): 417 ± 61.4 µM

CC[n+]1c(-c2ccccc2)c2cc(N)ccc2c2ccc(N)cc21.[Br-] [ethidium bromide, 3,8-diamino-5-ethyl-6-phenylphenanthridinium bromide]
Kb (CT-DNA [7]): (1.23 ± 0.07) × 10^5 M^−1

[Ag2(S-Methyl-Thiosal)2] [C1]
IC50 (human lung cancer (A549); A549, 24 h): 58.3 ± 1.91 µM | Selectivity Index (IC50 mMSC or MRC-5/ IC50 Cancer Cell) (human lung cancer (A549); A549, 24 h): 0.79 | IC50 (human lung cancer (A549); A549, 48 h): 48.6 ± 1.06 µM | Selectivity Index (IC50 mMSC or MRC-5/ IC50 Cancer Cell) (human lung cancer (A549); A549, 48 h): 1.10 | kq (quenching rate constant) (BSA; BSA 2 µM): (1.7 ± 0.1) × 10^13 M^−1 s^−1 | Ksv (Stern–Volmer constant) (BSA; BSA 2 µM, λex 295 nm): (1.7 ± 0.1) × 10^5 M^−1 | K (binding constant) (BSA; Scatchard equation): (1.7 ± 0.1) × 10^5 M^−1 | n (number of binding sites) (BSA; Scatchard equation): 0.8 | ΔG (Gibbs free energy) (CT-DNA [8]): -6.64 kcal/mol | IC50 (mouse lung cancer (LLC1); LLC1, 24 h): 39.8 ± 1.07 µM | IC50 (mouse lung cancer (LLC1); LLC1, 48 h): 32 ± 1.47 µM | IC50 ([4]; MDA-MB-468, 24 h): 4.19 ± 0.98 µM | Selectivity Index (IC50 mMSC or MRC-5/ IC50 Cancer Cell) ([4]; MDA-MB-468, 24 h): 11.05 | IC50 ([4]; MDA-MB-468, 48 h): 4.37 ± 0.41 µM | Selectivity Index (IC50 mMSC or MRC-5/ IC50 Cancer Cell) ([4]; MDA-MB-468, 48 h): 12.18 | IC50 ([5]; 4T1, 48 h): 4 ± 0.95 µM | IC50 ([6]; MRC-5, 24 h): 46.3 ± 1.52 µM | IC50 ([6]; MRC-5, 48 h): 53.2 ± 1.27 µM | Ksv EB (Stern–Volmer constant) (CT-DNA [9]): (6.0 ± 0.1) × 10^3 M^−1

— PMC12567082, “Silver(I) Complexes Bearing S-Alkyl Thiosalicylic Acid Derivatives: DNA/BSA Binding and Antitumor Activity In Vitro and In Vivo” (Pharmaceutics, 2025)
